Reference: patent US20070110885A1, “Method for controlling retention of an organic compound or of a plurality of organic compounds inside a liquid or solid phase and applications of said method, in particular in the agri-food domain” (priority 2002, published 2007)

Tests used:
Format in all cases: physicochemical
[1] = Evaluation of the aroma losses during gas bubbling (Tenax entrapment and pentane extraction); settings: 50 ppm in NaCl 50 mM pH 7.5
Protocol: 4. Evaluation of the Losses During the Bubbling
The aroma losses upon bubbling have been evaluated by entrapment on an absorbing polymer (Tenax) of the gas effluent at the flask outlet and by extraction of the liquid phase with pentane. The same is done for all the gasses being used.
The loss test is made on a 50 mL of a 2-nonanone solution (50 ppm) in NaCl (50 mM, pH 7.5).
The gas is simultaneously bubbled (8 min) at the same flowrate of 20 mL.min^−1 in the flask, then the gas effluent is entrapped on Tenax at the flask outlet. This Tenax trap is afterwards desorbed on a TCT Chrompak apparatus coupled with a HP chromatograph provided with a FID detector.
The amount of aroma entrapped on Tenax is determined in comparison with an external calibration curve. This calibration curve is obtained as described hereinafter: 1 μl of 2-nonanone solution is deposited in pentane in the glass cotton of the Tenax tube upper part, then the Tenax tube is desorbed in the same conditions as for the analysis. Different concentrations have been tested.
The amount of aroma remaining in the liquid phase is determined by extraction of the aroma solution (5 mL) by pentane (5 mL). One μl of the organic phase is injected in split/splitless in CPG. A comparison is made with an external calibration, obtained by injection of 1 μl of 2-nonanone solution in pentane.

[2] = Static headspace measurement of aroma release from a liquid phase to the vapour phase versus redox potential modified by gas bubbling; settings: for change of mass sharing coefficient Ki when the redox potential of the first liquid phase is lowered: liquid phase/gas phase; for effect of redox on aroma release/retention (headspace): FIG. 3, 4, 5
Source text: The study of the checking of the mass sharing coefficient Ki of an organic compound (i) between two phases, respectively a first liquid phase and a second vapour phase, as a function of the redox potential value includes the quantification of the organic compound (i) in the vapour phase at equilibrium, by the static headspace technique. In the examples, the method of the invention is illustrated with aroma-type organic compounds (i).
The static headspace technique consists in analyzing the vapours in equilibrium above a solution placed in a confined atmosphere at a given temperature. The vapour analysis in gas chromatography (CPG) gives the volatile compound concentration of the “head space”.
The aroma solutions are prepared in a solution of 50 mM NaCl, the pH of which has been adjusted to pH 3 with HCl (1N) or at pH 7.5 with NaOH (1N).
Furthermore, tests have also been realized in the presence of a lactoserum protein, the β-lactoglobuline, dispersed (3%) in a solution of 50 mM NaCl at pH 3 or pH 7.5, or in whole or skimmed milk.
The redox is modified by bubbling a gas (hydrogen, nitrogen, helium, or oxygen) at a flowrate of 20 mL.min^−1 for a previously determined time (8 min). The redox measurement is realized after the gas bubbling step with a redox measurement electrode connected to a pH meter-voltameter. The thus prepared solutions are distributed on the basis of 10 mL in brown flasks of 40 mL (Supelco, France) closed by Mininert valve plugs (Supelco). […]
A control is realized in the presence of air: the bubbling step is not realized, only the pressurization occurs, in the same conditions as the other gasses.
The flasks are then equilibrated in a water bath at 30° C. for 1 hr 30. At least 3 brown flasks are prepared for each gas, a flask serving only for one injection.
At the equilibrium, 1 mL of vapour phase is taken with a 1 mL gas syringe (SGE), then injected in a gas chromatograph (CPG) provided with a DB-WAX column (J&W Scientific, diameter 0.32 mm, length 30 m, phase thickness 0.5 μm) and a flame ionization detector. The injector and detector temperatures are respectively 250° C. and 260° C. The vector gas velocity (hydrogen) at 143° C. is of 37 cm.sec-^1. The signal acquisition is achieved with a chromatogram acquisition and treatment software developed in the laboratory.
Thus, the amount of aroma present in the vapour phase is determined for each gas.

[3] = Retention of aroma between aqueous phase (water) and organic liquid phase (dichloromethane) versus redox; settings: water/dichloromethane mixture; FIG. 9
Source text: FIG. 9 illustrates the results of a measurement of the retention degree of 2-nonanone between an aqueous phase (water) and an organic liquid phase (dichloromethane) with non pressurized flasks (diamonds) or pressurized flasks with hydrogen (squares).
The experiment of Example 2 is realized, but in a mixture of water (aqueous phase)/dichloromethane (CH2Cl2, organic phase).

[4] = Static headspace measurement with redox modified by addition of molecules (DTT, potassium ferricyanide)
Protocol: 1. Preparation of the Reducing Medium
The reducing medium is obtained by addition of DTT(1,4-dithiothreitol). The ultrapure water employed for the solution preparation is degassed with a high gas flowrate during 1 h. La 2-nonanone solution (50 ppm) is prepared through addition of such aroma into the degassed water; the solution volume has been chosen so that a minimum of air exists between the plug and the solution. The thus prepared solution is stirred for homogenisation for 30 min.
An aliquot of this solution is added with DTT (10 g.l^−1) and then this solution is stirred for 30 min.
In order to prevent the dilution phenomenon, another protocol has been used: the degassed water is added with DTT (10 g.l^−1), then the aroma is added.
The thus prepared solutions are distributed at a level of 10 mL in 40 mL brown flasks (Supelco, France) closed by Mininert valves (Supelco). The flasks are pressurized with nitrogen for 1 min with a flowrate of 260 mL.min^−1. The overpressure is then evacuated. The flasks are then equilibrated during 1 h 30 in a water bath at 30° C. For each one of the conditions, 4 repetitions are realized.
2. Preparation of the Oxidizing Medium
The oxidizing medium is obtained by addition of potassium ferricyanide.
Two aroma solutions are prepared: for solution 1, the 2-nonanone is solubilized in water and then the solution is stirred for 30 min; for solution 2, the potassium ferricyanide is dissolved in water, then the 2-nonanone is added. This solution is afterwards stirred during 30 min.
The thus prepared solutions are distributed at a level of 10 mL in 40 mL brown flasks (Supelco, France) closed by Mininert valves (Supelco).
The flasks are then equilibrated during 1 h 30 in a water bath at 30° C. For each one of the conditions, 4 repetitions are realized.

CCCCCCCC(C)=O [2-nonanone]
aroma losses during bubbling ([1]; helium): 0.5%
aroma losses during bubbling ([1]; hydrogen): 0.3%
aroma losses during bubbling ([1]; nitrogen): 2%
aroma losses during bubbling ([1]; oxygen): 2.3%
aroma losses during bubbling ([1]; regardless of the gas employed, bubbling 8 min at 20 mL/min): < 3%
effect of a positive redox potential value on release ([2]; aqueous liquid phase contacted with 100% oxygen or air (21% oxygen), same with 100% nitrogen): favours the release or the transfer
retention within the liquid phase with helium gas ([2]; aqueous solution pH 7.5, helium, redox +400 mV): no significant difference
modification of the medium aroma release at low redox (headspace) ([2]; aqueous solution pH 7.5, hydrogen -320 mV versus nitrogen/oxygen about +500 mV, FIG. 1): ~−30%
effect when the atmosphere is neutral or oxidizing and the redox increases ([2]; aqueous solution pH 7.5, hydrogen, non pressurized flask, FIG. 8): effect inverses
effect at low redox under reducing atmosphere ([2]; aqueous solution pH 7.5, hydrogen, pressurized flask, FIG. 8): retention effect
difference of retention depending on the redox ([2]; aqueous solution with beta-lactoglobuline at 3%, pH 7.5 and acid medium, FIG. 2): does not show any difference of retention depending on the redox
modification of the aroma release at low redox (headspace) ([2]; aqueous solution, acid medium, FIG. 1): −20%
effect of a negative level of redox potential on retention ([2]; liquid phase contacted with gas containing 100% hydrogen): favours the 2-nonanone retention in the liquid phase
change of mass sharing coefficient Ki when the redox potential of the first liquid phase is lowered [2]: growth of the mass sharing coefficient Ki value
change of mass sharing coefficient Ki at low redox potential ([2]; skimmed milk, pH 4.6): reduction of the mass sharing coefficient value Ki
effect at high redox ([2]; skimmed milk, FIG. 7): no effect
retention effect at low redox ([2]; skimmed milk, FIG. 7): −20%
redox effect on the aroma release ([2]; whole milk, FIG. 7): do not show any redox effect
retention in the aqueous phase at low redox [3]: better retained in the aqueous phase
effect of reducing the redox potential by a reducing compound ([4]; aqueous liquid phase, dithiothreitol (DTT) added): favours the 2-nonanone retention in the liquid phase
effect of increasing the redox potential by an oxidizing compound ([4]; aqueous liquid phase, potassium ferricyanide added): favours the 2-nonanone release or transfer towards the second gas phase
release in the vapour phase in a reducing medium versus oxidizing medium ([4]; water, 50 ppm, DTT 10 g/l versus potassium ferricyanide, FIG. 10): less 2-nonanone released in the vapour phase than in the oxidizing medium

C=CCN=C=S [AITC, allyl isothiocyanate]
effect of redox on aroma release/retention (headspace) ([2]; conditions of Examples 2, 3, 4): −30%
change of mass sharing coefficient Ki when the redox potential of the first liquid phase is lowered [2]: growth of the mass sharing coefficient Ki value

CC(=O)C(C)=O [diacetyl]
effect of redox on aroma release/retention (headspace) ([2]; conditions of Examples 2, 3, 4): +20%
change of mass sharing coefficient Ki when the redox potential of the first liquid phase is lowered [2]: increase of the mass sharing coefficient Ki

CCCCCC(=O)OCC [ethyl hexanoate]
effect of redox on aroma release/retention (headspace), in words ([2]; conditions of Examples 2, 3, 4, FIG. 5): no effect
change of mass sharing coefficient Ki when the redox potential of the first liquid phase is lowered [2]: lack of significant modification
